Read-outs that look alike come from different tables or passages of the source.
Experiments:
[1] = target: T1, aldehyde oxidase (AO) (Homo sapiens (Human), UniProt Q06278); test: in vitro
Protocol: All calculations were carried out using Microsoft Excel. Peak areas were determined from extracted ion chromatograms. The slope value, k, was determined by linear regression of the natural logarithm of the remaining percentage of the parent drug vs. incubation time curve.

[2] = target: ATM (Homo sapiens (Human), UniProt Q13315); test: biochemical; format: biochemical; settings: read-out: ATM IC50
Source text: Assay a): ATM Biochemical Potency
Data was collected by Caliper.

[3] = target: ATR (Homo sapiens (Human), UniProt Q13535); test: ATR biochemical potency assay (Assay b)
Protocol: Assay b): ATR Biochemical Potency
The plate was incubated at room temperature for 10 minutes. 2× peptide solutions were prepared with FAM-labeled peptide and ATP in the 1× kinase base buffer. […] 40 μl of stop buffer was added to stop reaction. Data were collected by Caliper.

[4] = target: DNA-PK (Homo sapiens (Human), UniProt P78527); test: DNA-PK biochemical assay (Assay e)
Protocol: Assay e): DNA-PK Biochemical Assay
The final concentration: Substrate 0.2 ug/ml and ATP 20 uM. […] The plate was equilibrated for 2 hr at room temperature.

[5] = tested on: phosp-KAP1 in MCF-7 cells; test: phosp-KAP1 MCF-7 cellular potency assay (Assay f); format: cell-based; settings: Homo sapiens, MCF7; MCF-7 cells, etoposide; read-out: Etoposide MCF-7 cellular IC50
[6] = target: ATM (phospho-ATM Ser1981) in SN38 treated HT-29 cells (Homo sapiens (Human), UniProt Q13315); test: cell-based; settings: HT-29 cells, SN-38; read-out: SN-38 HT-29 cellular IC50
Protocol: Assay g): ATM SN-38 HT-29 Cellular Potency
SN38 causes single strand DNA breaks (SSBs) which are converted to double strand breaks (DSBs) during replication. ATM plays role of repairing DSBs. Inhibition of ATM was evaluated in SN38 treated HT-29 cells (ATCC, Cat #HTB-38) by high-Content Imaging System
The graphical views were then generated using Prism 7.0 (Graphpad).

[7] = target: mTOR (Homo sapiens (Human), UniProt P42345); test: mTOR biochemical potency assay (Assay d)
Protocol: Assay d): mTOR Biochemical Potency
Solution of mTOR enzymes (Millipore, Cat. No. 14-770) was prepared in 1× kinase buffer at 4-fold of the final concentration (final concentration: 6 nM) in the assay. 2.5 μl of kinase solution was added to each well of the 384-well assay plate, which contains 2.5 μl of compounds with serially diluted concentration. 2× substrate solution was prepared with ULight-4E-BP1 (Thr37/46) Peptide (PE, Cat. No. TRF0128-M) and ATP in 1× kinase reaction buffer at 2-fold of the final concentration of each reagent in the assay. 5 μl of substrate solution was added to each well of the assay plate to start reaction. The assay plate was incubated at room temperature for 30 minutes. Detection solution of kinase quench buffer (EDTA) and Eu-anti-phospho-4E-BP1 antibody (Thr37/46) (PE, Cat. No. TRF0216-M) were prepared at 2-fold the desired final concentrations of each reagent in Lance detection buffer. 10 μl of detection solution buffer was added to each well of the assay plate.

[8] = target: PI3Kα (p110α/p85a) (Homo sapiens (Human), UniProt P42336); test: PI3K biochemical potency assay (Assay c), PI3Kα
Protocol: Assay c): PI3K Biochemical Potency
(§1) 2.5 μl of kinase solution was added to each well of the 384-well assay plate, which contains 2.5 μl of compounds with serially diluted concentration. 2× substrate solution was prepared with PIP2 substrate and ATP in 1× kinase reaction buffer at 2-fold of the final concentration of each reagent in the assay. 5 μl of substrate solution was added to each well of the assay plate to start reaction. The assay plate was incubated at room temperature for 1 hour. 5 μl reaction mix was transferred to a new 384 well plate. 5 μl of ADP-Glo reagent (Promega, Cat. No. v9102/3) was added to each well of the new assay plate to stop the reaction. The plate was shaken slowly and equilibrated for 40 minutes. 10 μl kinase detection reagents were added to each well, which was equilibrated for 60 minutes before read on a plate reader (Envision) for luminescence.

[9] = target: PIK3Cδ (Homo sapiens (Human), UniProt O00329); test: PI3K biochemical potency assay (Assay c), PIK3Cδ
Protocol: Assay c): PI3K Biochemical Potency
as §1

[10] = target: PIK3Cβ (p110β) (Homo sapiens (Human), UniProt P42338); test: PI3K biochemical potency assay (Assay c), PIK3Cβ
Protocol: Assay c): PI3K Biochemical Potency
as §1

[11] = target: PIK3Cγ (pp110γ) (Homo sapiens (Human), UniProt P48736); test: PI3K biochemical potency assay (Assay c), PIK3Cγ
Protocol: Assay c): PI3K Biochemical Potency
as §1

[12] = tested on: FaDu xenograft; test: FaDu xenograft model, radiation combination (Assay i); format: in vivo, mouse; settings: oral compound in combination with IR (2 Gy per day, 5 days per cycle)
Protocol: Assay i): FaDu Xenograft Model
Cell culture: FaDu tumor cells were cultured in an EMEM medium containing inactivated 10% fetal bovine serum, 100 U/ml penicillin and 100 μg/ml streptomycin in a 37° C., 5% CO2 incubator.
Inoculation and grouping: Xenografts were established by implantation of 100 μl of Fadu tumor cell suspension (5×10^6 cells/mouse) subcutaneously into the right flank of female immune-compromised BALB/c nude mice at least 6 weeks of age. Tumours were measured in two dimensions with calipers and the tumour volume was calculated using the following formula: tumor volume=(length×width^2)×0.5. When the average tumor volume reached 100 to 150 mm^3, tumour-bearing mice were randomized into treatment groups.
Treatment and tumor assessment: Animals received 3 to 6 cycles of treatment with compounds combined with radiation therapy. Each cycle included 5 consecutive treatment day plus 2 days' rest. Ionizing radiation was administered using a fractionated schedule of 2 Gy per day administered over 5 consecutive days (total radiation dose=10 Gy/cycle). Compound was given orally 10 minutes before irradiation. The tumour volume and body weight of the mice were measured twice weekly.
Statistical Analysis: The One-Way ANOVA test was used for statistical analysis of tumor volume between groups, and p<0.05 was considered as a significant difference.

[13] = target: T1, aldehyde oxidase (AO); settings: reference compounds of the human liver cytosolic system; cited from earlier work
[14] = cited from earlier work; for clearance in humans: Zientek et al. 2010

PIK3Cβ (p110β), sequence (P42338 whole entry, looked up): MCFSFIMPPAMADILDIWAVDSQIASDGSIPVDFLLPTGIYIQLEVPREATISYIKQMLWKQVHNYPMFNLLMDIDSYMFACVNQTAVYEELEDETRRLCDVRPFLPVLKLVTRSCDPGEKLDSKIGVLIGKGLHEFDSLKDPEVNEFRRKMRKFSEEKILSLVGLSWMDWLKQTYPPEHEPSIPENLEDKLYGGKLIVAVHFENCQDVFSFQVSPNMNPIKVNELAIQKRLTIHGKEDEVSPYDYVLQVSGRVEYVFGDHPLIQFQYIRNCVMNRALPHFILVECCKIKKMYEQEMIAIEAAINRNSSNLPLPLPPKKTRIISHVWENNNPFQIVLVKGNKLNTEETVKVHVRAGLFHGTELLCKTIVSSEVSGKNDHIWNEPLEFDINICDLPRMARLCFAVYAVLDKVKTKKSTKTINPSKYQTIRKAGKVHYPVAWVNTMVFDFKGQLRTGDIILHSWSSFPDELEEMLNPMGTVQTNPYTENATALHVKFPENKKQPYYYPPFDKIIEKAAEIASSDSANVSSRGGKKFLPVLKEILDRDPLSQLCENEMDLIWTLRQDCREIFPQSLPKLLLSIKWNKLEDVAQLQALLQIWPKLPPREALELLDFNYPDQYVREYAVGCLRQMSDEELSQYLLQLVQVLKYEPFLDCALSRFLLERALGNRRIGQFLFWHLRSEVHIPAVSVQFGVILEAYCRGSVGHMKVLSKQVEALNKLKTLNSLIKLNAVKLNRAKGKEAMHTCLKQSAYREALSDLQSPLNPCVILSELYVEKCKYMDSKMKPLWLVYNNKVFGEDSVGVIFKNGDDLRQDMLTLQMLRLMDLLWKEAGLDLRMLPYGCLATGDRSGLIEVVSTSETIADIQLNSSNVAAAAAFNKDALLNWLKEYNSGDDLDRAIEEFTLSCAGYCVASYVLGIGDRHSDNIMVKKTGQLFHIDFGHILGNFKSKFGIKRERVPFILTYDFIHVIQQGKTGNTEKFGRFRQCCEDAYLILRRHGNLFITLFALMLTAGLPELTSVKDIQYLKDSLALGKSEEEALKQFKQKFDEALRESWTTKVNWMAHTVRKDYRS
PIK3Cβ (p110β), sequence (P27986 whole entry partner, looked up): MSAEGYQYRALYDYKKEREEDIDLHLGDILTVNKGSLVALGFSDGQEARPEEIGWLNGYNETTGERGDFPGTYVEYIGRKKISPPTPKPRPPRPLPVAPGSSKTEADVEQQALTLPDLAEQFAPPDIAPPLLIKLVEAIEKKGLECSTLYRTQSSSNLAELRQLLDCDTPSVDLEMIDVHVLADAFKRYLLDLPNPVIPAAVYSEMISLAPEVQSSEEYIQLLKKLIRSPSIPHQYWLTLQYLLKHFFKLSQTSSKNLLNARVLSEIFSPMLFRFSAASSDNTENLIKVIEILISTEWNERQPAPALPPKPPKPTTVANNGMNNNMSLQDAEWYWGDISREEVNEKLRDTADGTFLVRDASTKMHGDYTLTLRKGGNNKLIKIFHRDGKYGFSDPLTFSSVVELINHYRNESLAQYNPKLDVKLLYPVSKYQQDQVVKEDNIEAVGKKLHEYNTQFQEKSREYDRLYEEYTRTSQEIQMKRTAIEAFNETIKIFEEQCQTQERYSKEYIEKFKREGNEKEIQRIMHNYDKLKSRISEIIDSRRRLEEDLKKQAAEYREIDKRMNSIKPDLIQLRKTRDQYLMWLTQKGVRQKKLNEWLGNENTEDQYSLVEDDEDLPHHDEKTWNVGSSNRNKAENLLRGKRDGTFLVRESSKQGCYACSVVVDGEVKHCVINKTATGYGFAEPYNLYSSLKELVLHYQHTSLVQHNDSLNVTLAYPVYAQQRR
T1 sequence (Q06278 whole entry): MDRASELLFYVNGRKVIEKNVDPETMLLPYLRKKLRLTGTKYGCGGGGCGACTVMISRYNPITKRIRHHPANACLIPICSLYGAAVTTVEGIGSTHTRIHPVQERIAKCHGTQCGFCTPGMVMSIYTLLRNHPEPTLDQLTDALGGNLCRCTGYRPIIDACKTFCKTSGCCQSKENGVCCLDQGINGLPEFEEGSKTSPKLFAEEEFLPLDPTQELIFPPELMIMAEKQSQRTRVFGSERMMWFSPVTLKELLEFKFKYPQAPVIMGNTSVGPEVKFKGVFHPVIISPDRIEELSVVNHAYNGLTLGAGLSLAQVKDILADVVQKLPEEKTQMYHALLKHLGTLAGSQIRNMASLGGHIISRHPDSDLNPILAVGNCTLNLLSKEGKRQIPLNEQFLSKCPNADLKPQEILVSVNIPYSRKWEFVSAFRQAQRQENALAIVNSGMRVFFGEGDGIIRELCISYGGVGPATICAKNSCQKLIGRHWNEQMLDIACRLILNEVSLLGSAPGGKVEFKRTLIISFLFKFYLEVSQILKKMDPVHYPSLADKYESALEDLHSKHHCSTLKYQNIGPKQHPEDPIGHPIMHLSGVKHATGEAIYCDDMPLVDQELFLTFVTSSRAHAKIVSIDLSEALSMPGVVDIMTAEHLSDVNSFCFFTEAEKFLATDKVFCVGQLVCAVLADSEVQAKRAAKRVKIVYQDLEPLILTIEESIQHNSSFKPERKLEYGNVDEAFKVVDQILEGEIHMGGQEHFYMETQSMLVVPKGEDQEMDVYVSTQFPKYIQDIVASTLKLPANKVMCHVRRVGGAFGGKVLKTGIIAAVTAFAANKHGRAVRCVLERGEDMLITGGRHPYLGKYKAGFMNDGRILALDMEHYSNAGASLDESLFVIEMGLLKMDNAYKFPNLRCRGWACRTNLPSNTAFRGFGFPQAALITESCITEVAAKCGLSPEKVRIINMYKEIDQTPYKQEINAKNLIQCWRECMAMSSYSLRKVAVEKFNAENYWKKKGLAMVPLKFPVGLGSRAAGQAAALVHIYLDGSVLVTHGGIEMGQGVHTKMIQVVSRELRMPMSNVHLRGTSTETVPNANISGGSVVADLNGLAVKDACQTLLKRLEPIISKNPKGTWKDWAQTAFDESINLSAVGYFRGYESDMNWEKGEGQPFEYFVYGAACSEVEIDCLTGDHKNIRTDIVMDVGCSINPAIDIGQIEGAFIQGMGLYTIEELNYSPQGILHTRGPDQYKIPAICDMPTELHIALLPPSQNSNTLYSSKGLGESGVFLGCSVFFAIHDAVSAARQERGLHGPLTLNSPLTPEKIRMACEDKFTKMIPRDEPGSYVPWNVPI
PIK3Cδ, sequence (O00329 whole entry, looked up): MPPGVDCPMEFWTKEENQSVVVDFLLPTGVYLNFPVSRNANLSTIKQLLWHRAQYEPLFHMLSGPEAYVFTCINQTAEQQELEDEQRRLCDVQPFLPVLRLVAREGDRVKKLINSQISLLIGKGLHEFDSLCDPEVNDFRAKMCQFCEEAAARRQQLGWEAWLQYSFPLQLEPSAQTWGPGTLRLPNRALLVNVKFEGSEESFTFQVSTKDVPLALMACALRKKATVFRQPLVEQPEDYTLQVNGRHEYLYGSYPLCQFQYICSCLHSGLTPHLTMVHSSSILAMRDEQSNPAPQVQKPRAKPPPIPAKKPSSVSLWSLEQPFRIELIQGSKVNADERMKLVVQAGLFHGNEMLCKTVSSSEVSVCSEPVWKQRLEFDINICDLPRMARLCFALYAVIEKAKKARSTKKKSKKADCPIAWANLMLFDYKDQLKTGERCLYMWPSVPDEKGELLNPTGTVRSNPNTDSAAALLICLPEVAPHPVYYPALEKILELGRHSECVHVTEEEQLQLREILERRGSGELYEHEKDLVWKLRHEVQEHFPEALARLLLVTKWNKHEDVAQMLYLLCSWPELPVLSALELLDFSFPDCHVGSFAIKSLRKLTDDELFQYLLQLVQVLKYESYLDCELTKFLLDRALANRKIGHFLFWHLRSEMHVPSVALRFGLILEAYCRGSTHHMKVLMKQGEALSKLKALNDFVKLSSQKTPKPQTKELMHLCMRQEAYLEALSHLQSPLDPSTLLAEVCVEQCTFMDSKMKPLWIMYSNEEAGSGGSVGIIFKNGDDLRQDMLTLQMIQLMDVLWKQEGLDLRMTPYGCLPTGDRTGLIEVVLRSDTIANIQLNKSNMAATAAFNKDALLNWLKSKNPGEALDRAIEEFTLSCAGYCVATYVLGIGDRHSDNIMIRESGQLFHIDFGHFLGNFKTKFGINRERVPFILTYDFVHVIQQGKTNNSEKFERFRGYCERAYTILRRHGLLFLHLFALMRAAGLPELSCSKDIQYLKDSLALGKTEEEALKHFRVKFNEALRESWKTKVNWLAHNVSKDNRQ
PIK3Cδ, sequence (P27986 whole entry partner, looked up): as the sequence (P27986 whole entry partner, looked up) above

Compound | IC50 [2] [µM] | IC50 [3] [µM] | IC50 [4] [µM] | IC50 ([7]; read-out: mTor IC50) [µM] | IC50 ([8]; read-out: PI3Kα IC50) [µM] | IC50 ([9]; read-out: PI3Kδ IC50) [µM] | IC50 ([10]; read-out: PI3Kβ IC50) [µM] | IC50 ([11]; read-out: PI3Kγ IC50) [µM] | also measured
CC(C)n1c(=O)n(C)c2cnc3cc(F)c(-c4ccc(OCCCN5CCCCC5)nc4)cc3c21 [AZD1390] | – | – | – | – | – | – | – | – | AO substrate classification ([1]; human liver cytosol): strong AO substrate
CC(C)n1c(=O)n(C)c2nnc3ccc(-c4ccc(COCCN5CCC(C)(C)CC5)nc4)cc3c21 [Example 31, 8-(6-((2-(4,4-dimethylpiperidin-1-yl)ethoxy)methyl)pyridin-3-yl)-1-isopropyl-3-methyl-1H-imidazo[4,5-c]cinnolin-2(3H)-one] | 0.011 | > 10 | > 10 | > 10 | > 10 | > 10 | > 10 | > 10 | IC50 [5]: 0.016 µM; IC50 [6]: 0.029 µM
COC1CCN(CCO[C@H](C)c2ccc(-c3ccc4nnc5c(c4c3)n(C(C)C)c(=O)n5C)cn2)CC1 [Example 56, (R)-1-isopropyl-8-(6-(1-(2-(4-methoxypiperidin-1-yl)ethoxy)ethyl)pyridin-3-yl)-3-methyl-1H-imidazo[4,5-c]cinnolin-2(3H)-one] | 0.0032 | > 10 | > 10 | > 10 | > 10 | > 10 | > 10 | > 10 | –
CC(C)n1c(=O)n(C)c2nnc3ccc(-c4ccc([C@@H](C)OCCN5CC[C@@H](OC6CC6)C5)nc4)cc3c21 [Example 76, 8-(6-((R)-1-(2-((R)-3-cyclopropoxypyrrolidin-1-yl)ethoxy)ethyl)pyridin-3-yl)-1-isopropyl-3-methyl-1H-imidazo[4,5-c]cinnolin-2(3H)-one] | – | > 10 | > 10 | – | – | – | – | – | IC50 [7]: > 10 µM; IC50 [8]: > 10 µM; IC50 [9]: > 10 µM; IC50 [10]: > 10 µM; IC50 [11]: > 10 µM
CC(C)n1c(=O)n(C)c2nnc3ccc(-c4ccc([C@@H](C)OCCN5CC[C@@H](C)C5)nc4)cc3c21 [Example 77, 1-isopropyl-3-methyl-8-(6-((R)-1-(2-((R)-3-methylpyrrolidin-1-yl)ethoxy)ethyl)pyridin-3-yl)-1H-imidazo[4,5-c]cinnolin-2(3H)-one] | 0.0048 | > 10 | > 10 | > 10 | > 10 | > 10 | > 10 | > 10 | –
C[C@@H](OCCN1CCC2(CC2)C1)c1ccc(-c2ccc3nnc4c(c3c2)n(C2CCOCC2)c(=O)n4C)cn1 [Example 102, (R)-8-(6-(1-(2-(5-azaspiro[2.4]heptan-5-yl)ethoxy)ethyl)pyridin-3-yl)-3-methyl-1-(tetrahydro-2H-pyran-4-yl)-1H-imidazo[4,5-c]cinnolin-2(3H)-one] | – | > 10 | – | – | – | – | – | – | tumor response in FaDu xenograft efficacy study [12]: tumor xenograft regression was observed and tumors did not relapse until the end of the study; IC50 [7]: > 10 µM; IC50 [8]: > 10 µM; IC50 [9]: > 10 µM; IC50 [10]: > 10 µM; IC50 [11]: > 10 µM
CO[C@H]1C[C@H](n2c(=O)n(C)c3nnc4ccc(-c5ccc([C@@H](C)OCCN6CCCC6)nc5)cc4c32)C1 [Example 162, 1-(trans-3-methoxycyclobutyl)-3-methyl-8-(6-((R)-1-(2-(pyrrolidin-1-yl)ethoxy)ethyl)pyridin-3-yl)-1,3-dihydro-2H-imidazo[4,5-c]cinnolin-2-one] | 0.007 | > 10 | > 10 | > 10 | > 10 | > 10 | > 10 | > 10 | IC50 [6]: 0.0055 µM
CC(C)n1c(=O)n(C)c2nnc3ccc(-c4ccc([C@H](OCCN5CCCC5)C(F)(F)F)nc4)cc3c21 [Example 184, (S)-1-isopropyl-3-methyl-8-(6-(2,2,2-trifluoro-1-(2-(pyrrolidin-1-yl)ethoxy)ethyl)pyridin-3-yl)-1,3-dihydro-2H-imidazo[4,5-c]cinnolin-2-one] | 0.0028 | > 10 | > 10 | > 10 | > 10 | > 10 | > 10 | > 10 | –
CC(C)n1c(=O)n(C)c2nnc3ccc(-c4ccc([C@@H](OCCN5CCCC5)C(F)(F)F)nc4)cc3c21 [Example 185, (R)-1-isopropyl-3-methyl-8-(6-(2,2,2-trifluoro-1-(2-(pyrrolidin-1-yl)ethoxy)ethyl)pyridin-3-yl)-1,3-dihydro-2H-imidazo[4,5-c]cinnolin-2-one] | 0.292 | > 10 | > 10 | > 10 | > 10 | > 10 | > 10 | > 10 | –
OCCn1cc(-c2cnc3nnn(Cc4ccc5ncccc5c4)c3n2)cn1 [PF-04217903, 2-[4-[3-(quinolin-6-ylmethyl)triazolo[4,5-b]pyrazin-5-yl]pyrazol-1-yl]ethanol] | – | – | – | – | – | – | – | – | AO substrate classification (reported) [13]: weak AO substrate
CCN(C(C)=O)c1cccc(-c2ccnc3c(C#N)cnn23)c1 [Reference compound 4, Zaleplon] | – | – | – | – | – | – | – | – | microsomal CLint ([1]; human, cytosol): 0.893 µL/min/mg; clearance in humans [14]: 16 mL/min/kg; clearance in humans corresponding to liver blood flow [14]: ~80 % liver blood flow
OCCn1cc(-c2cnc3nnn(Cc4ccc5ncccc5c4)c3n2)cn1 [Reference compound 5, PF-04217903] | – | – | – | – | – | – | – | – | clearance in humans [14]: 6 mL/min/kg; clearance in humans corresponding to liver blood flow [14]: ~30 % liver blood flow
CCN(C(C)=O)c1cccc(-c2ccnc3c(C#N)cnn23)c1 [Zaleplon, N-[3-(3-cyanopyrazolo[1,5-a]pyrimidin-7-yl)phenyl]-N-ethylacetamide] | – | – | – | – | – | – | – | – | AO substrate classification (reported) [13]: strong AO substrate
